{"source": "ChEMBL document CHEMBL1201862", "about": "“PubChem BioAssay data set” (2004)", "key": {"[1]": {"target": "T1, Tyrosine-protein phosphatase non-receptor type 7 (Homo sapiens, UniProt P35236)", "T1 sequence (P35236 whole entry)": "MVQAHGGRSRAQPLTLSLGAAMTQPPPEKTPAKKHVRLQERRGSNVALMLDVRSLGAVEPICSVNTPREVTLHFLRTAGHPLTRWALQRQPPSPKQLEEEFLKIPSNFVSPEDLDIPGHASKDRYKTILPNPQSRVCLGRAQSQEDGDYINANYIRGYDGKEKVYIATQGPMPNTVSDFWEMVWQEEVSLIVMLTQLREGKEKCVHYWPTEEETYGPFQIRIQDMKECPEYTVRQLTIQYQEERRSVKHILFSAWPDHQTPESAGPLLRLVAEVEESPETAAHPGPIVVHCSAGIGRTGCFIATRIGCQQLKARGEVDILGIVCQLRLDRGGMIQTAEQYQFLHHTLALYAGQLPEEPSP", "format": "functional"}, "[2]": {"target": "Glyceraldehyde-3-phosphate dehydrogenase (Homo sapiens, UniProt P04406)", "sequence (P04406 whole entry)": "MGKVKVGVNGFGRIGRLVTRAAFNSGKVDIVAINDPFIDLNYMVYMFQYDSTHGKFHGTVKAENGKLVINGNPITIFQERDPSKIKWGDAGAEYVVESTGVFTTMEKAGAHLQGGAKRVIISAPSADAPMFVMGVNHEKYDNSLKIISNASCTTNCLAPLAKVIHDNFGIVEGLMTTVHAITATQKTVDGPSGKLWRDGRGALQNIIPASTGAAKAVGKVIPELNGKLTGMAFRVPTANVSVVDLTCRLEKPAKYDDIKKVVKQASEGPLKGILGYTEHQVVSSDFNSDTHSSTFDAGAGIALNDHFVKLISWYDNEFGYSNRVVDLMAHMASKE"}, "[3]": {"target": "T2, Dual specificity protein phosphatase 6 (Rattus norvegicus, UniProt Q64346)", "T2 sequence (Q64346 whole entry)": "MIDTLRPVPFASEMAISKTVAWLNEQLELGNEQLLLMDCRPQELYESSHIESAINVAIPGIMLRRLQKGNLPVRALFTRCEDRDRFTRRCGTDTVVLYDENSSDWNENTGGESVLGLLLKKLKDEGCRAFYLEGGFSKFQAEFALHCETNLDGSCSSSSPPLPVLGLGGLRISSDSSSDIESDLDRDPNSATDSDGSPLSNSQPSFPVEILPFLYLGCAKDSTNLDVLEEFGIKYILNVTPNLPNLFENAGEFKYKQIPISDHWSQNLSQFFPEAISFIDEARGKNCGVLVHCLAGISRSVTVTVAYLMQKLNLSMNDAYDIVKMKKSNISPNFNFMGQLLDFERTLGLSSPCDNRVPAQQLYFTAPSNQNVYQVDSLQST"}, "[4]": {"target": "T2, Dual specificity protein phosphatase 6", "format": "functional"}, "[5]": {"target": "DNA dC->dU-editing enzyme APOBEC-3A (Homo sapiens, UniProt P31941)", "sequence (P31941 whole entry)": "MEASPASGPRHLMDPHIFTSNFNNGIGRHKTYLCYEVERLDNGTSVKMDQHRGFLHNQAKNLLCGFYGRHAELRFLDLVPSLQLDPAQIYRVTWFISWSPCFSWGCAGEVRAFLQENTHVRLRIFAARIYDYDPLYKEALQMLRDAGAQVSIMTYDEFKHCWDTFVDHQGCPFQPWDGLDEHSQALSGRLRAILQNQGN", "assay": "A3A deaminase inhibition for selectivity – biochemical, dose response (AID 504722)", "format": "functional"}, "[6]": {"target": "Glucose-6-phosphate 1-dehydrogenase (Homo sapiens, UniProt P11413)", "sequence (P11413 whole entry)": "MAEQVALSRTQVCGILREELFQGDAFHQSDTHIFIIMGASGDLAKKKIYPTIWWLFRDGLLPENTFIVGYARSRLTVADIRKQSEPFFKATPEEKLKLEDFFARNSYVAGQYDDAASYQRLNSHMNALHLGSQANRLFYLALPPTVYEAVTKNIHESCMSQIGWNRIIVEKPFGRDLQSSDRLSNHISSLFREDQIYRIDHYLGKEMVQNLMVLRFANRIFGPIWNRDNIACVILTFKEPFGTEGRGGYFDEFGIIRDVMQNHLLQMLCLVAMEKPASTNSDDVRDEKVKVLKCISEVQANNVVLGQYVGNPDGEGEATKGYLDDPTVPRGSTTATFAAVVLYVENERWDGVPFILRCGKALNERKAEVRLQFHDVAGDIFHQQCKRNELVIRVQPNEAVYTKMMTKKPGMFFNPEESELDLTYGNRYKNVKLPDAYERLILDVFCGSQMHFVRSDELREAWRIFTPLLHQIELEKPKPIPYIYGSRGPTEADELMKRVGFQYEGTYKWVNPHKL", "assay": "inhibition of Homo sapiens G6PD, dose series – biochemical, fluorescence, selectivity assay for P. falciparum G6PD inhibitor project, dose response (AID 504792)", "format": "functional"}, "[7]": {"target": "DNA dC->dU-editing enzyme APOBEC-3G (Homo sapiens, UniProt Q9HC16)", "sequence (Q9HC16 whole entry)": "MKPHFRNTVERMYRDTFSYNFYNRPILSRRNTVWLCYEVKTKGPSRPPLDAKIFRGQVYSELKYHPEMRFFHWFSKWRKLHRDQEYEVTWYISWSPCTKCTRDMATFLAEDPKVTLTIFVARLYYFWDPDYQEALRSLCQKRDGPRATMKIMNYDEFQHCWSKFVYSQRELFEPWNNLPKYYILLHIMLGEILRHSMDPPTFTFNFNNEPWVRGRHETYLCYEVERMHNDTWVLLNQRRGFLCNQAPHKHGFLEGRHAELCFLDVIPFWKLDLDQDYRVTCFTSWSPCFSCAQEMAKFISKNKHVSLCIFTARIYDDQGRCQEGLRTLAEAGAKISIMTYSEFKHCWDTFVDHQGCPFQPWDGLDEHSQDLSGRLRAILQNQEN", "assay": "Dose Response confirmation of small molecule APOBEC3G DNA Deaminase Inhibitors via a fluorescence-based single-stranded DNA deaminase assay. [Related pubchem assays (depositor defined):AID493012, AID493028]", "format": "functional"}, "[8]": {"target": "Lysine-specific demethylase 4C (Homo sapiens, UniProt Q9H3R0)", "sequence (Q9H3R0 whole entry)": "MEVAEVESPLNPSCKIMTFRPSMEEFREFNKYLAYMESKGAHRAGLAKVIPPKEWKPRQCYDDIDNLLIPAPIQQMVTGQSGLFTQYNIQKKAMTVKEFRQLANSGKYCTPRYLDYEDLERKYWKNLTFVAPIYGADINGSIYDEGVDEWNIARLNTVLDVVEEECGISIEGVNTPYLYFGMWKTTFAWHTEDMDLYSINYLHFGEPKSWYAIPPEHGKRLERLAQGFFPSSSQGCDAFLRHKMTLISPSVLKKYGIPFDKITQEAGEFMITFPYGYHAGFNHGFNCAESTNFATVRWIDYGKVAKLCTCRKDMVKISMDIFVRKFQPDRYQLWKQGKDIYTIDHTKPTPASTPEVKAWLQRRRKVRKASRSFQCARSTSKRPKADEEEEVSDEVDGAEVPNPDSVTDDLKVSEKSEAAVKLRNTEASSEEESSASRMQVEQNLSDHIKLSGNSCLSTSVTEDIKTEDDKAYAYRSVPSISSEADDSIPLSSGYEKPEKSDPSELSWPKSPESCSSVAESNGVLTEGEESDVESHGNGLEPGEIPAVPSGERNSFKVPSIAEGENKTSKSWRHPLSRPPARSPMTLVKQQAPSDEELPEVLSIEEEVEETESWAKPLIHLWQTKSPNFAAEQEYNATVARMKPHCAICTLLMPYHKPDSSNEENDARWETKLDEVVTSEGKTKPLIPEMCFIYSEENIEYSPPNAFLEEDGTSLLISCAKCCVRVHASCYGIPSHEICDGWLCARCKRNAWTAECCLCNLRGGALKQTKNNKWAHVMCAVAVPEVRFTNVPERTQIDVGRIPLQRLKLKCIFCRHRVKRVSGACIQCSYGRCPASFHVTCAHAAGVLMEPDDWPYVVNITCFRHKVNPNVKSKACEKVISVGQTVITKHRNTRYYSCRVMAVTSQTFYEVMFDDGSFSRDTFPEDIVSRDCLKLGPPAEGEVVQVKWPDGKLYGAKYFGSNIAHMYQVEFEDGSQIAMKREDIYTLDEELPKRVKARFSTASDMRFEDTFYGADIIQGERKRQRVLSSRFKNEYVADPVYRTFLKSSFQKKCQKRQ", "assay": "inhibition of JMJD2C H3K9me3 demethylation – biochemical, DELFIA europium, cherry-picked samples, dose response (AID 488835)", "format": "functional"}, "Tumor necrosis factor": {"target": "Tumor necrosis factor (Homo sapiens, UniProt P01375)", "sequence (P01375 whole entry)": "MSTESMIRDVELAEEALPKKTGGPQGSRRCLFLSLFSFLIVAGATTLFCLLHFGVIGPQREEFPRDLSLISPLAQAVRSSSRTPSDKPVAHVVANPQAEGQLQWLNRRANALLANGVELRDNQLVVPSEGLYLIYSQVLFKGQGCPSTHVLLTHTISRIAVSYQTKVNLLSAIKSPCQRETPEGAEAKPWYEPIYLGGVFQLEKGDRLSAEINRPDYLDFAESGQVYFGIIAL", "assay": "analog potency on TNFa NF-kB signaling – cell-based, revised, SAR follow-up (AID 2337)", "format": "functional"}, "[9]": {"target": "T3, Nucleotide-binding oligomerization domain-containing protein 1 (Homo sapiens, UniProt Q9Y239)", "T3 sequence (Q9Y239 whole entry)": "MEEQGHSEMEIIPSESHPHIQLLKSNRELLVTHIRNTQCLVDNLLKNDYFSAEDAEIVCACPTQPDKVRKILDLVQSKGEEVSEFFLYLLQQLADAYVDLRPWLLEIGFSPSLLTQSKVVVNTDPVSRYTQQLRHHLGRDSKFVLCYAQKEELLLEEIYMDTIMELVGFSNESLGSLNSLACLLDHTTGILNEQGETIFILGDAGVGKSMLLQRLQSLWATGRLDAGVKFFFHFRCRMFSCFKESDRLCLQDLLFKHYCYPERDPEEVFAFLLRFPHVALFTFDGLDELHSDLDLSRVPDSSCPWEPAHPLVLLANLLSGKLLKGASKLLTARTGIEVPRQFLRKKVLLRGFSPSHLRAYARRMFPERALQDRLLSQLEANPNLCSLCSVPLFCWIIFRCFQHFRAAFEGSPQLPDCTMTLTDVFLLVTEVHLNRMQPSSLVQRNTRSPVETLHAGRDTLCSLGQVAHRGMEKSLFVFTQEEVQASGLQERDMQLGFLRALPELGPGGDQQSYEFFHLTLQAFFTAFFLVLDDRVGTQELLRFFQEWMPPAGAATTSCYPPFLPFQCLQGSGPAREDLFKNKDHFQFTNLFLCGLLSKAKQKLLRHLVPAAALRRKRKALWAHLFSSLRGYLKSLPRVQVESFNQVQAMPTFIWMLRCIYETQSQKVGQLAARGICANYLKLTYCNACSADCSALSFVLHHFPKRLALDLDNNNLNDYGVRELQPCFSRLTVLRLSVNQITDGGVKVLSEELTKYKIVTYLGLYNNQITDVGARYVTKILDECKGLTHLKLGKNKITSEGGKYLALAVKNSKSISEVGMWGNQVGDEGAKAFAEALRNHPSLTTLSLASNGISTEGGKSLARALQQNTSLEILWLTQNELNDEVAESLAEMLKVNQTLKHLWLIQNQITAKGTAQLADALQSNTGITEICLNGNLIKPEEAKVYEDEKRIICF", "assay": "blockers of NOD1 pathway activity – revised, SAR follow-up (AID 2333)", "format": "functional"}, "HEK293": {"tested_on": "HEK293", "assay": "cells", "settings": "Homo sapiens"}, "[10]": {"target": "T4, Mannose-6-phosphate isomerase (Homo sapiens, UniProt P34949)", "T4 sequence (P34949 whole entry)": "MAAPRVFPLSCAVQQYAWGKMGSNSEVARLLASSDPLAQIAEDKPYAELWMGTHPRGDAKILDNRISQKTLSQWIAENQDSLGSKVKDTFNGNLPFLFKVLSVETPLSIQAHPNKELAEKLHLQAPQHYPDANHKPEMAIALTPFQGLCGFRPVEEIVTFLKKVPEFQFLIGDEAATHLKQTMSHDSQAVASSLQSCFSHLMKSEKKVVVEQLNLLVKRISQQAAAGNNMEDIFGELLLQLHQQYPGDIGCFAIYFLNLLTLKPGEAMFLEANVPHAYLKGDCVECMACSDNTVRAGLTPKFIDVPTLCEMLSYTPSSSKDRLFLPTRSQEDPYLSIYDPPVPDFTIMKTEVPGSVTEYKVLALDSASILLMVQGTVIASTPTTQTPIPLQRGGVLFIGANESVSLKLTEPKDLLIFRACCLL", "assay": "MPI inhibition at elevated mannose 6-phosphate – biochemical, fluorescence intensity, high mannose 6-phosphate, primary screen (AID 1220)"}, "[11]": {"assay": "viability loss in THP-1 monocytes – THP-1 cells, cytotoxicity control for Vif-APOBEC3G degradation inhibitor project, dose response (AID 1117359)", "format": "functional", "settings": "THP-1"}}, "note": "The source made the active and inactive calls. Rule as the data show it, for most assays here: actives have a measured IC50 and inactives only a lower limit.", "data": [{"smiles": "O=C(Cc1cccs1)Nc1ccon1", "values": [{"measurement": "IC50", "setting": "[1]", "value": "> 100 µM (not active)"}, {"measurement": "IC50", "setting": "[2]", "value": "27.4 µM (active)"}, {"measurement": "IC50", "setting": "[3]", "value": "> 100 µM (inactive)"}, {"measurement": "IC50", "setting": "[4]", "value": "> 100 µM (inactive)"}]}, {"smiles": "O=S(=O)(Nc1ccccc1F)c1cccc(NC(=S)NCCN2CCOCC2)c1", "values": [{"measurement": "IC50", "setting": "[5]", "value": "> 100 µM (inactive)"}, {"measurement": "IC50", "setting": "[6]", "value": "> 80 µM (inactive)"}, {"measurement": "IC50", "setting": "[7]", "value": "7.38 µM (active)"}, {"measurement": "AC50", "setting": "[8]", "value": "8.95 µM (active)"}]}, {"smiles": "COC(=O)CC1=NN(c2nc3ccccc3s2)C(=O)/C1=C(/C)Nc1ccc(Cl)cc1", "values": [{"measurement": "IC50", "setting": "Tumor necrosis factor", "value": "36.9 nM (active)"}, {"measurement": "IC50", "setting": "[9]", "value": "< 39.1 nM (active)"}, {"measurement": "IC50", "setting": "HEK293", "value": "> 20 µM (inactive)"}]}, {"smiles": "Oc1cccc(/C=N/NC(=S)NCCN2CCOCC2)c1O", "values": [{"measurement": "IC50", "setting": "[10]", "value": "23.6 µM (active)"}, {"measurement": "AC50", "setting": "[8]", "value": "4.02 µM (active)"}, {"measurement": "CC50", "setting": "[11]", "value": "17.9 µM (active)"}]}]}
